The record followed here is PubChem BioAssay AID1996.

Converted amounts (≈) assume the structure as drawn.

As usually defined, the kinetic solubility is the concentration staying in solution when a stock, usually in DMSO, is diluted into the medium.

The conditions of the data set: buffer; pH 7.4; 200.0 µM.
In turn, `O=C(/C=C/c1ccc(Cl)cc1)Nc1ccc(Br)cn1` had a kinetic solubility of less than 0.4 µg/mL. As for `Cc1ccccc1Nc1nc(N)nc(CCl)n1`, the figure is more than 37.5 µg/mL; as for `COc1ccc(N/C=C/C(=O)c2ccc(OC)c(OC)c2)cc1`, less than 0.7 µg/mL.

The compound `CN(C)/C=N/c1c(C#N)cnn1C` came in with a solubility (kinetic) of more than 26.6 µg/mL. Next, `Cc1cccc(C)c1OCCCn1ccnc1`: 20.1 µg/mL (≈ 87.3 µM). On to `CCOC(=O)c1ccccc1NC(=O)c1ccc2nc[nH]c2c1`, for which the solubility (kinetic) was determined as 11.3 µg/mL (≈ 36.5 µM).

`O=c1c2[nH]cnc2n(-c2ccc(F)cc2)c(=O)n1Cc1ccccc1` gave a kinetic solubility of more than 50.4 µg/mL. In the case of `S=C(NCc1ccc2c(c1)OCO2)NCc1ccco1`, the kinetic solubility was more than 43.6 µg/mL.

In the case of `O=C(NCc1ccncc1)C1=NN(c2ccccc2)C(=O)CC1`, the solubility (kinetic) is more than 46.3 µg/mL. As for `O=C1CSC(=S)N1c1cccc(F)c1`, the figure is 1 µg/mL (≈ 4.4 µM); as for `Cc1ccc(SCC(=O)NCCCc2ccccc2)cc1`, 5.7 µg/mL (≈ 19 µM); as for `Cc1ccsc1C1CC(=O)Nc2ccccc2S1` (stereo unspecified), 35.6 µg/mL (≈ 129 µM). Next, `CC1(C)C(=O)Nc2ccccc2N1C(=O)COC(=O)Cc1ccccc1F`: more than 55.6 µg/mL; `CC(=O)Nc1nc(C)c(-c2nc3ccc([N+](=O)[O-])cc3[nH]2)s1`: 1.2 µg/mL (≈ 3.78 µM); `CC1=NCCN1CCNC(=O)Nc1ccc(C(C)(C)C)cc1`: more than 45.4 µg/mL. Next, `CC1(C)CC(=O)C=C(NNC(=O)c2cccnc2)C1`: more than 38.9 µg/mL. `Cc1ccccc1Cn1c(=O)n(C)c(=O)c2sccc21` yielded a solubility (kinetic) of 5.9 µg/mL (≈ 20.6 µM).

`CC(=O)N1CCN(c2ccc(C(N)=O)cc2[N+](=O)[O-])CC1` showed a solubility (kinetic) of more than 43.8 µg/mL.

The compound `COC(=O)Nc1ccc(S(=O)(=O)NC2CCCCC2)cc1` had a kinetic solubility of 3.2 µg/mL (≈ 10.2 µM). As for `O=C(/C=C/c1ccc([N+](=O)[O-])cc1)c1cccs1`, the figure is 1.6 µg/mL (≈ 6.17 µM).

Consider `Cc1ccccc1OCCCn1c(CO)nc2ccccc21`, for which the solubility (kinetic) was 12.9 µg/mL (≈ 43.5 µM). Next, `CCCC(=O)NCc1ccccc1Cl`: 30.2 µg/mL (≈ 143 µM). Compound `CCC(C)NC(=O)c1cc2c(=O)n3cccc(C)c3nc2s1` (stereo unspecified) came in with a kinetic solubility of 46 µg/mL (≈ 146 µM).

`CC(=O)N1CCC(N(C(=O)Nc2ccc(Cl)cc2)C(C)C)CC1` gave a solubility (kinetic) of more than 50.7 µg/mL. Next, `Cn1nccc1C(=O)OCC(=O)Nc1ccccc1`: more than 38.9 µg/mL; `CCCCCCCn1c(=O)c(C(=O)OC)c(N)c2ccccc21`: less than 0.3 µg/mL. For `CCOC(=O)C1CCN(Cc2ccc(O)c3ncccc23)CC1`, the solubility (kinetic) came out at 1.6 µg/mL (≈ 5.09 µM).

For the compound `COC(=O)c1sccc1NC(=O)Nc1ccc(F)cc1F`, the solubility (kinetic) was found to be 26.6 µg/mL (≈ 85.2 µM). Next, `Cc1cc(C(=O)OCC(=O)NCc2ccccc2Cl)c(C)o1`: 2.2 µg/mL (≈ 6.84 µM). As for `O=C(NCCc1ccc(Cl)cc1)Nc1ccc(Cl)cc1`, the figure is less than 0.3 µg/mL.

For `Cc1nnc(SCC(=O)Nc2nccs2)o1`, the kinetic solubility is more than 38.4 µg/mL. Next, `COc1cccc(-c2ocnc2C(=O)Nc2ccc3c(c2)CCC3)c1`: less than 0.4 µg/mL. Next, `COc1ccc(Cl)cc1S(=O)(=O)n1ccnc1`: more than 40.9 µg/mL. As for `O=C(COC(=O)/C=C/c1cccc(Br)c1)NC1CCCC1`, the figure is 4.1 µg/mL (≈ 11.6 µM); as for `COc1ccc(NC(=O)CN(C)C(=O)C2(c3ccccc3)CCCC2)cc1`, more than 55 µg/mL; as for `Cc1ccc(CNC(=S)N(C)C)cc1`, more than 31.2 µg/mL. Consider `Cn1c(S(=O)(=O)O)nc2ccccc21`, for which the solubility (kinetic) worked out at 31.5 µg/mL (≈ 148 µM). `COC(=O)CNC(=O)/C=C/c1cc(Br)ccc1OC` had a solubility (kinetic) of 38.1 µg/mL (≈ 116 µM). As for `COc1cccc(C(=O)Nc2ccccc2N2CCN(C(=O)c3ccccc3)CC2)c1`, the figure is 15 µg/mL (≈ 36.1 µM). Next, `N#C/C(=C\N1CCOCC1)C(N)=O`: more than 27.2 µg/mL; `O=C(NCc1ccc2c(c1)CCO2)Nc1cccc(C(F)(F)F)c1`: 1 µg/mL (≈ 2.97 µM).

For the compound `S=C(NCCc1ccccn1)Nc1ccccc1`, the kinetic solubility amounted to 32.1 µg/mL (≈ 125 µM). As for `COc1ccccc1C(=O)NC(C)c1cccc2ccccc12` (stereo unspecified), the figure is 18.7 µg/mL (≈ 61.2 µM). In turn, `C=CCNc1nc(C(=O)OCC(=O)c2ccccc2)cs1` showed a solubility (kinetic) of 4.5 µg/mL (≈ 14.9 µM). As to `Cc1ccccc1/C=C/c1cc[n+](C)cc1.[I-]`, the solubility (kinetic) was more than 50.6 µg/mL. Next, `COC(=O)c1ccc(NC(=O)CCC(=O)c2ccc(F)cc2)cc1`: less than 0.7 µg/mL. With `CCc1ccc(S(=O)(=O)NC2CCCCNC2=O)cc1` (stereo unspecified), the solubility (kinetic) is more than 44.5 µg/mL. Next, `CC1CCC(NS(=O)(=O)c2cccc3nsnc23)CC1` (stereo unspecified): more than 46.7 µg/mL. `Cc1cccc(CSc2nnc([C@@H]3CCCN3)o2)c1.Cl`: the solubility (kinetic) was more than 46.8 µg/mL. Next, `C=CCOCC(O)Cn1c(N2CCCC2)nc2c1c(=O)[nH]c(=O)n2C` (stereo unspecified): more than 52.4 µg/mL; `CN1CCN(c2oc(Cc3cccc4ccccc34)nc2C#N)CC1`: 43.5 µg/mL (≈ 131 µM). Next, `CC1CC(C)CN(C(=O)c2ccc(S(=O)(=O)N3CCCCC3)cc2)C1` (stereo unspecified): 5.1 µg/mL (≈ 14 µM). As for `NS(=O)(=O)c1cccc(Nc2nc3ccccc3nc2NS(=O)(=O)c2ccc(Cl)cc2)c1`, the figure is 7.4 µg/mL (≈ 15.1 µM); as for `Cc1ccc(OCc2ccc(-c3ccccc3)cc2)c([N+](=O)[O-])n1`, 0.4 µg/mL (≈ 1.25 µM).

In turn, `COc1cc(/C=C(\CCC(=O)O)c2nc3ccccc3s2)ccc1OCC(=O)Nc1c(Cl)cccc1Cl` displayed a kinetic solubility of 24.2 µg/mL (≈ 43.4 µM). Next, `CCOC(=O)/C(C#N)=C/C1=C(N2CCOCC2)CC(C)(C)OC1`: more than 48.1 µg/mL; `COc1cc(C(=O)NCCCCc2ccccc2)cc(OC)c1OC`: 4.5 µg/mL (≈ 13.1 µM); `COc1cc(C(C)=O)ccc1OCC(=O)NCC(c1ccc(F)cc1)N1CCOCC1` (stereo unspecified): more than 64.6 µg/mL. For `CC1CC(C)CN(C(=O)c2ccc(C#N)cc2)C1` (stereo unspecified), the solubility (kinetic) is more than 36.3 µg/mL. Next, `CCOC(=O)c1ccc(CSC(=N)N)o1`: 31.4 µg/mL (≈ 138 µM). Next, `CCC(=O)Nc1ccc(NCc2cccs2)cc1`: more than 39.1 µg/mL; `Cc1ccc(NC(=O)CNS(=O)(=O)c2ccc(F)cc2)cc1C`: 6.7 µg/mL (≈ 19.9 µM). For `CCOc1ccc(N2CC(C(=O)N3CCCCCC3)CC2=O)cc1` (stereo unspecified), the kinetic solubility was more than 49.6 µg/mL. For `COc1cccc(OC)c1C(=O)O/N=C(\N)c1ccncc1`, the solubility (kinetic) stood at 42.2 µg/mL (≈ 140 µM). `NC1=NC(=Nc2cccc(S(N)(=O)=O)c2)c2ccccc21` had a kinetic solubility of more than 45.1 µg/mL.

Turning to `COc1ccc(NC(=O)COC(=O)c2cc(S(=O)(=O)N3CCCC3)ccc2O)cc1`, the kinetic solubility was more than 65.2 µg/mL. Next, `Cc1ccc(C(=O)Nc2cccnc2Cl)cc1Cl`: 32.9 µg/mL (≈ 117 µM); `CCOc1ccc(/C=C/c2nc(C#N)c(NCCCN(C)C)o2)cc1`: more than 51.1 µg/mL. `Cc1c(C(C)(C)C)s/c(=N/S(=O)(=O)c2ccccc2)n1C` gave a solubility (kinetic) of 43.7 µg/mL (≈ 135 µM). As for `Cn1c(NC(=O)c2ccccc2)nc2ccccc21`, the figure is 13 µg/mL (≈ 51.7 µM). As for `COc1ccc(C(=O)OCC(=O)NC2CC2)cc1OC`, the figure is more than 41.9 µg/mL; as for `Cc1ccc(COC(=O)NCc2cccnc2)cc1`, 35.7 µg/mL (≈ 139 µM); as for `CCOc1ccccc1NC(=O)Nc1ccncc1`, 36.3 µg/mL (≈ 141 µM). As for `O=C(CNC(=O)c1ccc2c(c1)OCO2)NCc1cccs1`, the figure is 34.8 µg/mL (≈ 109 µM).

`CC1CCC(NC(=O)C(Cc2ccccc2)n2cccc2)CC1` (stereo unspecified) yielded a kinetic solubility of 19.2 µg/mL (≈ 61.8 µM). For the compound `Cc1ccc(CNc2nc(C)c(C(=O)N(C)C)s2)cc1`, the kinetic solubility was more than 43.4 µg/mL. As for `COc1ccc2[nH]cc(/C=C/C(=O)c3ccccc3)c2c1`, the figure is 2.9 µg/mL (≈ 10.5 µM). As for `COc1cc(NC(=O)c2ccccn2)cc(OC)c1OC`, the figure is more than 43.2 µg/mL; as for `COc1ccccc1C(=O)Nn1c(C)nc2ccccc2c1=O`, more than 46.4 µg/mL.

The compound `O=C(Nc1ccc(Br)cc1)N1CCc2ccccc2C1` had a solubility (kinetic) of 1.1 µg/mL (≈ 3.32 µM). As for `CC(=O)Cc1nsc(NC(=O)c2ccccc2Cl)n1`, the figure is more than 44.4 µg/mL.

`Cc1cc(=O)oc2cc(OCC(=O)N3c4ccccc4NC(=O)C3(C)C)ccc12` came in with a kinetic solubility of 17.3 µg/mL (≈ 44.1 µM). As for `O=Cc1cn(CCOc2ccccc2F)c2ccccc12`, the figure is 12.8 µg/mL (≈ 45.2 µM); as for `COc1ccc(C2(O)C(=O)Nc3ccccc32)cc1` (stereo unspecified), more than 38.3 µg/mL. As for `COc1ccc(N2CCN(C(=O)c3cc4ccccc4o3)CC2)cc1`, the figure is less than 0.4 µg/mL; as for `O=c1cc(C(F)(F)F)[nH]c2ccccc12`, more than 32 µg/mL. As for `Cc1cc(NC(=O)CN2C(=O)NC(C)(CC(C)C)C2=O)no1` (stereo unspecified), the figure is more than 46.3 µg/mL; as for `Cc1cc(C)c2c(CC(=O)O)c(C)[nH]c2c1`, 28.5 µg/mL (≈ 131 µM); as for `COc1ccc(Cl)cc1NC(=S)NC1CCCC1`, 3 µg/mL (≈ 10.5 µM). In turn, `c1ccc(-c2csc(Nc3cccnc3)n2)cc1` came in with a kinetic solubility of 2.2 µg/mL (≈ 8.68 µM).

Regarding `Cc1ccccc1NC(=O)NC1CCCc2ccccc21` (stereo unspecified), the solubility (kinetic) was determined as 0.9 µg/mL (≈ 3.21 µM).

Regarding `NS(=O)(=O)c1cccc(NC(=O)CN2C(=O)C(=O)N(Cc3ccccc3)C2=O)c1`, the kinetic solubility was 60.5 µg/mL (≈ 145 µM). Next, `O=C(CC(=O)c1ccccc1)Nc1ccccc1`: 29.5 µg/mL (≈ 123 µM); `O=C(CN1C(=O)NC2NC(=O)NC21)N/N=C/c1ccccc1O` (stereo unspecified): more than 47.7 µg/mL. With `CC1=NN(c2ccccc2)C(=O)C1/C=C1\NC(=S)NC1=O` (stereo unspecified), the solubility (kinetic) was more than 45.1 µg/mL. Next, `O=C(NC1CCCc2ccccc21)c1cc(Cl)ccn1` (stereo unspecified): 13.2 µg/mL (≈ 46 µM); `CC(=O)Nc1ccc(C(=S)NCCCO)cc1`: more than 37.8 µg/mL. As for `O=C(OCN1C(=O)c2ccccc2C1=O)c1cccc(OC(F)F)c1`, the figure is 0.9 µg/mL (≈ 2.59 µM). In the case of `O=C(O)C1CCCN(C(=O)c2cccc3ccccc23)C1` (stereo unspecified), the kinetic solubility is more than 42.5 µg/mL.

On to `Cl.OC(CNCc1ccc(-c2ccccc2)cc1)c1ccccc1` (stereo unspecified), for which the solubility (kinetic) worked out at 1.6 µg/mL. As for `O=C(O)CCc1ccc(-c2ccccc2)n1-c1ccc(C(=O)O)cc1`, the figure is 47 µg/mL (≈ 140 µM); as for `N#C/C(=C\c1ccc(O)c(Br)c1)C(=O)N1CCCCC1`, more than 50.3 µg/mL. As for `CN(C)/C=N/c1sc2c(c1C(N)=O)CCCC2`, the figure is 19.4 µg/mL (≈ 77.2 µM); as for `CC(=O)c1cn(CCOc2ccc(F)cc2)c2ccccc12`, 10.8 µg/mL (≈ 36.3 µM). Next, `O=C(COC(=O)C1CC2C=CC1C2)Nc1ccccc1F` (stereo unspecified): more than 43.4 µg/mL; `C=CCn1c(NC(=O)c2ccco2)nc2ccccc21`: 21.2 µg/mL (≈ 79.3 µM).
